The text below walks through data of patent US6858647B2, “Retinoid compounds suited for antibacterial applications” (Galderma Research & Development S.N.C., priority 2000, dated 2005).

Converted amounts (≈) assume the structure as drawn. Like-named read-outs stand apart in the source and are kept apart here.

Assay [1] has as its system bacterium Staphylococcus aureus. As to the kind of experiment: Minimum bactericidal concentration (MBC). The conditions noted are these: Table IV, Example 2; mean of at least three tests; bactericidal activity (MBC). In kind it is cell-based. Here is the method:
The technique employed to determine the minimum bactericidal concentration, or MBC, was that described in Bactéricidie, P. Courvalin et al., Editions Maloine, 1990, chapter 7, page 335.
This minimum bactericidal concentration provides an indication as to the bactericidal effect of the test compounds, i.e., the capacity of these compounds to kill the bacterium.
(§1) Each compound of the invention and each comparative example taken from the Pierre Fabre patent application No. FR-2,736,548 was tested at least three times. The mean of the test results was calculated, along with the standard deviation. The reference compound used was gentamycin.

Assay [2] concerns Staphylococcus aureus CIP52.1. Briefly: Minimum inhibitory concentration (MIC), NCCLS dilution antimicrobial susceptibility test. In kind it is cell-based. The conditions noted are these: mean of at least three tests, read-out: MIC RESULTS MEAN.
Text: The bacterium Staphylococcus aureus CIP52.1 may be used in order to determine for each test compound the minimum inhibitory concentration for the bacterium, or MIC, expressed in μM.
The technique employed to determine the minimum inhibitory concentration or MIC was that described in the publication entitled “National committee for clinical laboratory standards” Vol. 13, No. 25, December 1993; Methods for dilution antimicrobial susceptibility tests for bacteria that grow aerobically-third edition, approved standard”. This minimum inhibitory concentration gives an indication as to the bacteriostatic effect of the test compounds, i.e., the capacity of these compounds to stop the proliferation of the bacterium.
Each compound of the invention was tested at least three times. The average of the test results was calculated, along with the standard deviation. The reference compound used was gentamycin.
The technique employed to determine the MIC values was the same as that described in Example 1.
as §1

The subject of assay [3] is RAR receptor. As to the kind of experiment: Biological activity of RAR receptor antagonist / agonist type. To be noted: stated in words, no test described.
Where [4] appears, read: Table III, Example 2, comparison with retinaldehydes.
Where [5] appears, read: Table II, Example 1, bacteriostatic effect.
The mark [6] stands for this setting: Staphylococcus aureus, CIP52, Table II, Example 1, bacteriostatic effect.

For orientation: MIC means the lowest concentration found to suppress growth. `CC1=C(/C=C/C(C)=C/C=C/C(C)=C/C=O)C(C)(C)CCC1` [Comparative Example 1, all-trans-retinaldehyde, reference compound]: the MIC came to 26.33 µM (≈ 7.49 µg/mL) in assay [1] and 11.64 µM (≈ 3.31 µg/mL) in assay [2] (setting [4]).

Take `CC1=C(/C=C/C(C)=C\C=C\C(C)=C\C=O)C(C)(C)CCC1` [Comparative Example 2, 9-cis-retinaldehyde, reference compound]: the MIC in assay [1] came out at 16.63 µM (≈ 4.73 µg/mL); in assay [2] (setting [4]), 11.52 µM (≈ 3.28 µg/mL).

For `CC1=C(/C=C/C(C)=C/C=C/C(C)=C\C=O)C(C)(C)CCC1` [Comparative Example 3, 13-cis-retinaldehyde, reference compound], the minimal inhibitory concentration (MIC) turned out to be 15.97 µM (≈ 4.54 µg/mL) in assay [1] and 7.64 µM (≈ 2.17 µg/mL) in assay [2] (setting [4]).

For `CC1(C)CCC(C)(C)c2cc(-c3cc(-c4ccc(C(=O)O)cc4)ccc3-c3ccccc3)c(O)cc21` [Compound 14, 2′-(3-Hydroxy-5,5,8,8-tetramethyl-5,6,7,8-tetrahydronaphthalen-2-yl) [1,1′,4′,1″]terphenyl-4″-carboxylic acid], the MIC in assay [2] (setting [5]) is recorded as 2.08 µM (≈ 0.991 µg/mL). The “biological activity at RAR receptor (antagonist or agonist type)” value (“biological activity at RAR receptor” below) in assay [3] is listed as “RAR receptor agonist type”.

On to `CC1(C)CCC(C)(C)c2cc3sc(-c4ccc(C(=O)O)cc4)cc3cc21` [Compound 15, 4-(5,5,8,8-Tetramethyl-5,6,7,8-tetrahydronaphtho-[2,3-b]thiophen-2-yl)benzoic acid], for which, in assay [2] (setting [6]), the MIC turned out to be 2.5 µM (≈ 0.911 µg/mL). Further, the “biological activity at RAR receptor” value in assay [3] is given as “RAR receptor agonist type”.

With `O=C(O)c1ccc(-c2ccc3cc(O)c(C45CC6CC(CC(C6)C4)C5)cc3c2)cc1` [Compound 16], in assay [2] (setting [5]), the MIC was found to be 2.50 µM (≈ 0.996 µg/mL). Also, the “biological activity at RAR receptor” value in assay [3] is recorded as “RAR receptor agonist type”.

On to `CCCc1ccc(-c2ccccc2C=CC#Cc2ccc(C(=O)O)cc2)cc1` [Compound 21, 4-[4-(4′-Propylbiphenyl-2-yl)but-3-en-1-ynyl]benzoic acid], for which the minimal inhibitory concentration (MIC) in assay [2] (setting [6]) was 2.5 µM (≈ 0.916 µg/mL). The “biological activity at RAR receptor” value in assay [3] is reported as “RAR receptor antagonist type”.

Take `COCCOCOc1cc2ccc(-c3ccc(C(=O)O)c(O)c3)cc2cc1C12CC3CC(CC(C3)C1)C2` [Compound 30, 4-[6-Methoxyethoxymethoxy-7-(1-adamantyl)-2-naphthyl] salicylic acid]: the minimal inhibitory concentration (MIC) in assay [2] (setting [6]) turned out to be 3.33 µM (≈ 1.67 µg/mL). In assay [3], the “biological activity at RAR receptor” value was “RAR receptor antagonist type”.

As for `COCOc1ccc(/C=C/C#Cc2ccc(C(=O)O)cc2)c(-c2ccc(C)cc2)c1` [Compound 31, (E)-4-[4-(5-Methoxymethoxy-4′ -methylbiphenyl-2-yl)but-3-en-1-ynyl]benzoic acid], the MIC in assay [2] (setting [6]) was determined as 3.33 µM (≈ 1.33 µg/mL). Also, in assay [3], the “biological activity at RAR receptor” value is recorded as “RAR receptor antagonist type”.

In the case of `COc1cccc(-c2ccc(C)cc2)c1C=CC#Cc1ccc(C(=O)O)cc1` [Compound 32, 4-[4-(3-Methoxy-4′-methylbiphenyl-2-yl)but-3-en-1-ynyl]benzoic acid], the MIC in assay [2] (setting [6]) stood at 3.33 µM (≈ 1.23 µg/mL). The “biological activity at RAR receptor” value in assay [3] is recorded as “RAR receptor antagonist type”.

Consider `COCOc1ccccc1-c1ccc(-c2ccc(C(=O)O)cc2)cc1-c1ccc2c(c1)C(C)(C)CCC2(C)C` [Compound 34, 2-Methoxymethoxy-2′-(5,5,8,8-tetramethyl-5,6,7,8-tetrahydronaphthalen-2-yl) [1,1′,4′1″]terphenyl-4″carboxylic acid], for which, in assay [2] (setting [5]), the MIC was determined as 3.33 µM (≈ 1.73 µg/mL). In assay [3], the “biological activity at RAR receptor” value is on record as “RAR receptor antagonist type”.

Consider `Cc1ccc(-c2ccccc2C=CC#Cc2ccc(C(=O)O)cc2)cc1` [Compound 37, 4-[4-(4′-Methylbiphenyl-2-yl)but-3-en-1-ynyl]benzoic acid], for which the MIC in assay [2] (setting [6]) turned out to be 4.16 µM (≈ 1.41 µg/mL). Moreover, in assay [3], the “biological activity at RAR receptor” value was “RAR receptor antagonist type”.

As to gentamycin [reference compound], the minimal inhibitory concentration (MIC) is 0.26 µM in assay [1], 0.11 µM in assay [2] (setting [5]) and 0.14 µM in assay [2] (setting [4]).
